We go through four compounds from patent US20250073680A1, “METHOD OF REGENERATING BIS(IMINOGUANIDINE) CARBON DIOXIDE SORBENTS FROM CARBONATE OR BICARBONATE SALT THEREOF” (UT-Battelle, LLC, priority 2023, published 2025).

Molecules are shown by their SMILES. “Also recorded” adds a separate entry of the source.

For data set [1] the following is noted: total regeneration energy; cited from earlier work.
A short description of data set [2]: Aqueous solubility of regenerated sorbent. The data set is classed as physicochemical. The note with it: free base.
Data set [3] can be described thus: Stability after steam stripping by NMR and XRD. The data set is classed as physicochemical. The conditions noted are these: 1H-NMR and XRD versus synthesized / conventionally regenerated sample. As to the method: Infrared sensors for CO2 concentration measurements in the inlet and outlet gas streams were used. For gas sample measurements, the exhaust gas passed through a water trap and hydrophobic filter (CM-0118) prior to reaching the sensor to avoid excess water. A total inorganic carbon analyzer containing an acidification module and a CO2 coulometer module was used to determine inorganic carbon content in solid samples. Air at 100 mL/min was used as a carrier gas, and calculations were based on sample weight. A 1 M Na2CO3 solution was used as a standard. Solid samples (40-60 mg) were weighed out into small Teflon cups, and the entire cup was transferred into a 15-mL sample flask. A volume of 5 mL of 2 M HCl acid was dispensed to acidify each sample. Solid samples were analyzed in duplicates. X-ray diffraction (XRD) measurements were conducted using an X-ray diffraction system equipped with a solid-state detector. For the XRD measurements, X-rays were generated at 45 kV/40 mA, and the X-ray beam wavelength was λ=1.5406 A (Cu Kα radiation). Nuclear magnetic resonance (NMR) measurements were performed to quantify solvent degradation after regeneration. The 1D spectra were recorded on a 400 MHz NMR spectrometer equipped with a 5 mm BBI or BBO probe. A residual solvent peak was used as an internal reference (DMSO-d6: 2.50 ppm). […]

For `CC(/C=N/NC(=N)N)=N\NC(=N)N` [MGBIG-C, methylglyoxal-bis(iminoguanidine) (MGBIG) carbonate], the regeneration energy in data set [1] is listed as 7.0-10.2 kJ/g-CO2.

Regarding `CC(/C=N/NC(=N)N)=N\NC(=N)N` [MGBIG, methylglyoxal-bis(iminoguanidine)], the aqueous solubility entry in data set [2] is “completely dissolved in water; also recorded: high aqueous solubility”. In data set [3], the “chemical stability after direct steam regeneration” value is given as “no chemical degradation occurred”.

Consider `N=C(N)NN=CC=NNC(=N)N` [GBIG, glyoxal-bis(iminoguanidine)], for which, in data set [3], the “chemical stability after direct steam regeneration” value is recorded as “no chemical degradation occurred”.

For `N=C(N)N/N=C/C=N/NC(=N)N` [GBIG-C, GBIG carbonate], in data set [1], the regeneration energy is 3.4 kJ/g-CO2.
